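Test compounds were applied to cells in 96-well plates for 48 hours at 5 doses. GI50: concentration for 50% inhibition of growth.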 The source made the active and inactive calls. No stated cut-off is given here; in the data, active = GI50 up to about 1.1 µM and inactive = higher.
Tests used:
Assay in all cases: DTP human tumour cell line panel, 48 h
[1] = system: OVCAR-4
[2] = system: Hs-578T
[3] = system: RXF 393
[4] = system: Malme-3M
[5] = system: KM12
[6] = system: ACHN
[7] = system: SR
[8] = system: UACC-257
[9] = system: SF-539
[10] = system: UO-31
[11] = system: OVCAR-3
[12] = system: COLO 205
[13] = system: A549
[14] = system: HOP-62
[15] = system: MDA-MB-435
[16] = system: A498
[17] = system: HCT-116
[18] = system: SK-OV-3
[19] = system: SN12C
[20] = system: T47D

SMILES	GI50 [1]	GI50 [2]	GI50 [3]	GI50 [4]	GI50 [5]	GI50 [6]	GI50 [7]	GI50 [8]	GI50 [9]	GI50 [10]	GI50 [11]	GI50 [12]	GI50 [13]	GI50 [14]	GI50 [15]	GI50 [16]	GI50 [17]	GI50 [18]	GI50 [19]	GI50 [20]
O=c1c2cc([N+](=O)[O-])ccc2n2n1CCCCC2	> 100 µM (inactive)	> 100 µM (inactive)	> 100 µM (inactive)	> 100 µM (inactive)	> 100 µM (inactive)	> 100 µM (inactive)	> 100 µM (inactive)	> 100 µM (inactive)	> 100 µM (inactive)	> 100 µM (inactive)	> 100 µM (inactive)	> 100 µM (inactive)	> 100 µM (inactive)	> 100 µM (inactive)	> 100 µM (inactive)	> 100 µM (inactive)	> 100 µM (inactive)	> 100 µM (inactive)	> 100 µM (inactive)	
Cc1c(NC(=O)c2cc([N+](=O)[O-])cc([N+](=O)[O-])c2)c(=O)n(-c2ccccc2)n1C	43.9 µM (inactive)	> 100 µM (inactive)	> 100 µM (inactive)	27.3 µM (inactive)	82.2 µM (inactive)		69.8 µM (inactive)	32.8 µM (inactive)	69.8 µM (inactive)	> 100 µM (inactive)	29.9 µM (inactive)	20.1 µM (inactive)	> 100 µM (inactive)	> 100 µM (inactive)	> 100 µM (inactive)	> 100 µM (inactive)	> 100 µM (inactive)	> 100 µM (inactive)	> 100 µM (inactive)	
CC1(C)C2CCC(CN)(C2)C1N (centres undefined)	> 100 µM (inactive)	> 100 µM (inactive)	> 100 µM (inactive)	> 100 µM (inactive)	> 100 µM (inactive)	> 100 µM (inactive)		14.8 µM (inactive)	> 100 µM (inactive)	> 100 µM (inactive)	> 100 µM (inactive)	> 100 µM (inactive)	> 100 µM (inactive)	> 100 µM (inactive)	> 100 µM (inactive)	> 100 µM (inactive)	> 100 µM (inactive)	> 100 µM (inactive)	> 100 µM (inactive)	> 100 µM (inactive)
COc1cc2c(cc1OCCCN1CCOCC1)N=C[C@@H]1CCCN1C2=O	13.3 µM (inactive)	16.9 µM (inactive)	2.75 µM (inactive)	8.3 µM (inactive)	13.4 µM (inactive)	14 µM (inactive)	3.57 µM (inactive)	24.6 µM (inactive)	4.7 µM (inactive)	11.5 µM (inactive)	2.83 µM (inactive)	1.87 µM (inactive)	35.7 µM (inactive)	12.5 µM (inactive)	11.8 µM (inactive)	10.1 µM (inactive)	12.8 µM (inactive)	10.8 µM (inactive)	23.6 µM (inactive)	
COc1cc2c(cc1OC)-c1[nH]c3ccc(C#N)cc3c1CC(=O)N2	> 30.1 µM (inactive)	0.861 µM (active)		> 28.5 µM (inactive)	1.71 µM (inactive)	2.32 µM (inactive)		> 52 µM (inactive)	0.521 µM (active)	2.11 µM (inactive)	1.42 µM (inactive)	0.463 µM (active)	5.26 µM (inactive)	3.86 µM (inactive)	8.79 µM (inactive)	7.74 µM (inactive)		> 100 µM (inactive)	5.04 µM (inactive)	> 100 µM (inactive)
CSc1s[s+]c(SC)c1-c1ccccc1	0.329 µM (active)	25.4 µM (inactive)	16.3 µM (inactive)	11.3 µM (inactive)	16 µM (inactive)	16.3 µM (inactive)		14.4 µM (inactive)	18.2 µM (inactive)	18.4 µM (inactive)	15 µM (inactive)	18.4 µM (inactive)	28.1 µM (inactive)	14.6 µM (inactive)	18.9 µM (inactive)	19.8 µM (inactive)	15.4 µM (inactive)	15.9 µM (inactive)	16.3 µM (inactive)	32.6 µM (inactive)
CN1C(=O)C2CCCC(=O)N2c2cccnc21 (centres undefined)	> 100 µM (inactive)	> 100 µM (inactive)		> 100 µM (inactive)	> 100 µM (inactive)	> 100 µM (inactive)	> 100 µM (inactive)	> 100 µM (inactive)	> 100 µM (inactive)	74.1 µM (inactive)	> 100 µM (inactive)	> 100 µM (inactive)	> 100 µM (inactive)	> 100 µM (inactive)	> 100 µM (inactive)		> 100 µM (inactive)		> 100 µM (inactive)	> 100 µM (inactive)
OCCCCCCCCCCCOc1ccc(C2OCC3(CC=CCC3)CO2)cc1 (centres undefined)	15.7 µM (inactive)	7.87 µM (inactive)		18.1 µM (inactive)	13 µM (inactive)	17.5 µM (inactive)	0.43 µM (active)	16.8 µM (inactive)	19.1 µM (inactive)	17.5 µM (inactive)	19.1 µM (inactive)	22 µM (inactive)	17.1 µM (inactive)	14.4 µM (inactive)	17.9 µM (inactive)		15.8 µM (inactive)	19.3 µM (inactive)	15 µM (inactive)	13.3 µM (inactive)
C=CCN(c1cc(O)c2c(c(C)cn2S(=O)(=O)c2ccccc2)c1[N+](=O)[O-])S(C)(=O)=O	> 100 µM (inactive)	> 100 µM (inactive)	56 µM (inactive)	> 100 µM (inactive)	> 100 µM (inactive)	81.1 µM (inactive)		> 100 µM (inactive)	> 100 µM (inactive)	> 100 µM (inactive)	65.5 µM (inactive)	> 100 µM (inactive)	56.5 µM (inactive)	> 100 µM (inactive)	29.2 µM (inactive)	74.1 µM (inactive)	59.2 µM (inactive)	> 100 µM (inactive)	78.9 µM (inactive)	40.7 µM (inactive)
O=C(O)c1ccc(C=C2Sc3ccccc3S2)cc1	55.3 µM (inactive)	24 µM (inactive)	54.5 µM (inactive)	84.7 µM (inactive)	46.7 µM (inactive)	22.6 µM (inactive)		54.5 µM (inactive)	> 100 µM (inactive)	63.8 µM (inactive)	30.3 µM (inactive)	92.7 µM (inactive)	43.2 µM (inactive)	81.5 µM (inactive)	21.1 µM (inactive)	14.5 µM (inactive)	48.1 µM (inactive)	86.9 µM (inactive)	65.9 µM (inactive)	45 µM (inactive)
COC(=O)[C@H](Cc1ccccc1)NC(=O)N(CCN(CCC#N)C(=O)N[C@H](C(=O)OC)C(C)C)c1ccccc1	53.3 µM (inactive)	> 100 µM (inactive)	> 100 µM (inactive)	43.7 µM (inactive)	> 100 µM (inactive)	> 100 µM (inactive)		32.1 µM (inactive)	> 100 µM (inactive)	> 100 µM (inactive)	> 100 µM (inactive)	> 100 µM (inactive)	> 100 µM (inactive)	> 100 µM (inactive)	85.3 µM (inactive)	> 100 µM (inactive)	> 100 µM (inactive)	> 100 µM (inactive)	> 100 µM (inactive)	49.4 µM (inactive)
COc1ccc2c(c1)/C(=C\c1cccc(/C=C3/C(=O)Nc4ccc(OC)cc43)n1)C(=O)N2	1.02 µM (active)	4.35 µM (inactive)	0.942 µM (active)	2.01 µM (inactive)	1.78 µM (inactive)	1.71 µM (inactive)		2.48 µM (inactive)	1.42 µM (inactive)	1.67 µM (inactive)	0.676 µM (active)	0.33 µM (active)	3.05 µM (inactive)	1.55 µM (inactive)	1.17 µM (inactive)	2.94 µM (inactive)	0.352 µM (active)	2.02 µM (inactive)	0.757 µM (active)	0.381 µM (active)
CC1(C(=O)O)CCCC1C(=O)O (centres undefined)	> 100 µM (inactive)	> 100 µM (inactive)	> 100 µM (inactive)	> 100 µM (inactive)	> 100 µM (inactive)	> 100 µM (inactive)		> 100 µM (inactive)		> 100 µM (inactive)	> 100 µM (inactive)		> 100 µM (inactive)	> 100 µM (inactive)		> 100 µM (inactive)	> 100 µM (inactive)		> 100 µM (inactive)	> 100 µM (inactive)
Cc1nc2c(O)cccc2c(=O)[nH]1	399 µM (inactive)	573 µM (inactive)	158 µM (inactive)	597 µM (inactive)	332 µM (inactive)	348 µM (inactive)	114 µM (inactive)	555 µM (inactive)	355 µM (inactive)	282 µM (inactive)	542 µM (inactive)		360 µM (inactive)	437 µM (inactive)	883 µM (inactive)	419 µM (inactive)	341 µM (inactive)	348 µM (inactive)	532 µM (inactive)	
CN(/N=C/c1ccnc2ccccc12)c1ccc(Cl)cc1[N+](=O)[O-]	4.92 µM (inactive)	12.5 µM (inactive)	37.3 µM (inactive)	70.3 µM (inactive)	> 100 µM (inactive)	> 100 µM (inactive)	2.64 µM (inactive)	9.59 µM (inactive)	24.4 µM (inactive)	> 100 µM (inactive)	80.9 µM (inactive)	> 100 µM (inactive)	> 100 µM (inactive)	31.8 µM (inactive)	> 100 µM (inactive)	> 100 µM (inactive)	> 100 µM (inactive)	> 100 µM (inactive)	> 100 µM (inactive)	

From ChEMBL document CHEMBL1201862, “PubChem BioAssay data set” (2004)
